From patent US10294202B2, “Pyrrolidinones as herbicides” (FMC Corporation, priority 2013, dated 2019)

Tests used:
blackgrass = assay: Test A postemergence herbicide test; format: in vivo, Alopecurus myosuroides
How it was run: (§1)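 Young potted plants in a loam–sand mix, one- to two-leaf stage and 2–10 cm tall, receive the test chemical postemergence and stay in a greenhouse for approximately 10 days. Injury is then judged by eye against untreated plants, scored 0 (none) to 100 (complete control).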

sedge, umbrella = assay: Test B flooded paddy test; format: in vivo, Cyperus difformis; conditions: 500 g ai/ha, Flood; scale of 0 to 100 where 0 is no effect and 100 is complete control
How it was run: (§2)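 Paddy-water application at a 3 cm flood, young plants having two leaves. Water level maintained; greenhouse, 13–15 days; visual 0–100 control rating.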

corn = assay: Test A pre-/postemergence herbicide test; format: in vivo, Zea mays; conditions: Postemergence
How it was run: (§3)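 Visual 0–100 ratings (100 = complete control) made about 10 days after treatment, greenhouse-held plants compared with untreated controls. Treatments: postemergence sprays on one- to two-leaf plants (2–10 cm tall) and preemergence directed soil sprays after planting in loam–sand, chemicals formulated in non-phytotoxic solvent containing surfactant.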

ducksalad = assay: Test B flooded paddy test; format: in vivo, Heteranthera limosa; conditions: 500 g ai/ha, Flood; scale of 0 to 100 where 0 is no effect and 100 is complete control
How it was run: as §2

barnyardgrass [1] = assay: Test A pre-/postemergence herbicide test; format: in vivo, Echinochloa crus-galli
How it was run: as §3

galium = assay: Test A postemergence herbicide test; format: in vivo, Galium aparine
How it was run: as §1

barnyardgrass [2] = assay: Test B flooded paddy test; format: in vivo, Echinochloa crus-galli; conditions: 500 g ai/ha, Flood; scale of 0 to 100 where 0 is no effect and 100 is complete control
How it was run: as §2

kochia = assay: Test A pre-/postemergence herbicide test; format: in vivo, Kochia scoparia
How it was run: as §3

rice = assay: Test B flooded paddy test; format: in vivo, Oryza sativa; conditions: 500 g ai/ha, Flood; scale of 0 to 100 where 0 is no effect and 100 is complete control
How it was run: as §2

pigweed = assay: Test A pre-/postemergence herbicide test; format: in vivo, Amaranthus retroflexus
How it was run: as §3

ragweed = assay: Test A pre-/postemergence herbicide test; format: in vivo, Ambrosia elatior
How it was run: as §3

ryegrass, Italian = assay: Test A pre-/postemergence herbicide test; format: in vivo, Lolium multiflorum
How it was run: as §3

giant foxtail = assay: Test A pre-/postemergence herbicide test; format: in vivo, Setaria faberii
How it was run: as §3

wheat = assay: Test A pre-/postemergence herbicide test; format: in vivo, Triticum aestivum; conditions: Postemergence
How it was run: as §3

[3] = 125 g ai/ha, 0 to 100 scale, 0 is no effect, 100 is complete control
[4] = 125 g ai/ha, visual rating, 0 to 100 scale, 0 no effect, 100 complete control, approximately 10 days, preemergence
[5] = Postemergence, 125 g ai/ha, 0 to 100 scale, 0 is no effect, 100 is complete control
[6] = preemergence, 500 g ai/ha, 0 to 100 scale, 0 is no effect and 100 is complete control
[7] = 125 g ai/ha, visual rating on 0 to 100 scale (0 no effect, 100 complete control), approx. 10 days
[8] = 500 g ai/ha, 0 to 100 scale (0 no effect, 100 complete control)
[9] = Postemergence, 125 g ai/ha, visual rating on 0 to 100 scale (0 no effect, 100 complete control), approx. 10 days
[10] = Postemergence, 500 g ai/ha, 0 to 100 scale (0 no effect, 100 complete control)
[11] = Preemergence, 125 g ai/ha, 0 to 100 scale where 0 is no effect and 100 is complete control

## O=C1NCC(c2cccc(C3CC3)c2)C1C(=O)Nc1cccc(F)c1F (racemic) [Compound 167]
blackgrass; [3]
  Plant response rating, Blackgrass: 50
blackgrass; 500 g ai/ha
  Blackgrass plant response rating (0 to 100 scale, 0 is no effect, 100 is complete control): 60
sedge, umbrella
  Plant response rating, Sedge, Umbrella: 0
corn; [3]
  Plant response rating, Corn: 0
corn; 500 g ai/ha
  Corn plant response rating (0 to 100 scale, 0 is no effect, 100 is complete control): 70
ducksalad
  Plant response rating, Ducksalad: 100
Barnyardgrass [1]; [4]
  Plant response rating, Barnyardgrass: 90
Barnyardgrass [1]; [5]
  Plant response rating, Barnyardgrass: 90
Barnyardgrass [1]; Postemergence, 500 g ai/ha
  Barnyardgrass plant response rating (0 to 100 scale, 0 is no effect, 100 is complete control): 90
Barnyardgrass [1]; preemergence, 500 g ai/ha, 0 to 100 scale (0 no effect, 100 complete control)
  Plant response rating, Barnyardgrass: 90
galium; [3]
  Plant response rating, Galium: 50
galium; 500 g ai/ha
  Galium plant response rating (0 to 100 scale, 0 is no effect, 100 is complete control): 60
Barnyardgrass [2]
  Plant response rating, Barnyardgrass: 75
kochia; [4]
  Plant response rating, Kochia: 20
kochia; [5]
  Plant response rating, Kochia: 30
kochia; Postemergence, 500 g ai/ha
  Kochia plant response rating (0 to 100 scale, 0 is no effect, 100 is complete control): 50
kochia; [6]
  Plant response rating, Kochia: 60
rice
  Plant response rating, Rice: 10
pigweed; [4]
  Plant response rating, Pigweed: 50
pigweed; [5]
  Plant response rating, Pigweed: 0
pigweed; Postemergence, 500 g ai/ha
  Pigweed plant response rating (0 to 100 scale, 0 is no effect, 100 is complete control): 0
pigweed; [6]
  Plant response rating, Pigweed: 50
ragweed; [4]
  Plant response rating, Ragweed: 0
ragweed; [5]
  Plant response rating, Ragweed: 20
ragweed; Postemergence, 500 g ai/ha
  Ragweed plant response rating (0 to 100 scale, 0 is no effect, 100 is complete control): 50
ragweed; [6]
  Plant response rating, Ragweed: 50
ryegrass, Italian; [4]
  Plant response rating, Ryegrass, Italian: 20
ryegrass, Italian; [5]
  Plant response rating, Ryegrass, Italian: 20
ryegrass, Italian; Postemergence, 500 g ai/ha
  Ryegrass, Italian plant response rating (0 to 100 scale, 0 is no effect, 100 is complete control): 40
ryegrass, Italian; [6]
  Plant response rating, Ryegrass, Italian: 70
Giant foxtail; [4]
  Plant response rating, Foxtail, Giant: 90
Giant foxtail; [5]
  Plant response rating, Foxtail, Giant: 90
Giant foxtail; Postemergence, 500 g ai/ha
  Foxtail, Giant plant response rating (0 to 100 scale, 0 is no effect, 100 is complete control): 90
Giant foxtail; preemergence, 500 g ai/ha, 0 to 100 scale
  Plant response rating, Foxtail, Giant: 90
wheat; [3]
  Plant response rating, Wheat: 0
wheat; 500 g ai/ha
  Wheat plant response rating (0 to 100 scale, 0 is no effect, 100 is complete control): 50

## O=C1NCC(c2cnn(CC(F)(F)F)c2)C1C(=O)Nc1cccc(F)c1F (stereo not drawn) [Compound 299]
blackgrass; [7]
  Plant response rating, Blackgrass: 0
blackgrass; [8]
  Plant response rating, Blackgrass: 0
sedge, umbrella
  Plant response rating, Sedge, Umbrella: 0
corn; [7]
  Plant response rating, Corn: 0
corn; [8]
  Plant response rating, Corn: 0
ducksalad
  Plant response rating, Ducksalad: 50
Barnyardgrass [1]; [9]
  Plant response rating, Barnyardgrass: 30
Barnyardgrass [1]; [10]
  Plant response rating, Barnyardgrass: 70
Barnyardgrass [1]; [11]
  Plant response rating, Barnyardgrass: 10
Barnyardgrass [1]; [6]
  Plant response rating, Barnyardgrass: 70
galium; [7]
  Plant response rating, Galium: 0
galium; [8]
  Plant response rating, Galium: 0
Barnyardgrass [2]
  Plant response rating, Barnyardgrass: 30
kochia; [9]
  Plant response rating, Kochia: 0
kochia; [10]
  Plant response rating, Kochia: 0
kochia; [11]
  Plant response rating, Kochia: 0
kochia; [6]
  Plant response rating, Kochia: 0
rice
  Plant response rating, Rice: 0
pigweed; [9]
  Plant response rating, Pigweed: 0
pigweed; [10]
  Plant response rating, Pigweed: 0
pigweed; [11]
  Plant response rating, Pigweed: 0
pigweed; [6]
  Plant response rating, Pigweed: 0
ragweed; [9]
  Plant response rating, Ragweed: 0
ragweed; [10]
  Plant response rating, Ragweed: 0
ragweed; [11]
  Plant response rating, Ragweed: 0
ragweed; [6]
  Plant response rating, Ragweed: 0
ryegrass, Italian; [9]
  Plant response rating, Ryegrass, Italian: 0
ryegrass, Italian; [10]
  Plant response rating, Ryegrass, Italian: 0
ryegrass, Italian; [11]
  Plant response rating, Ryegrass, Italian: 0
ryegrass, Italian; Preemergence, 500 g ai/ha, visual rating on 0 to 100 scale (0 no effect, 100 complete control)
  Ryegrass, Italian plant response rating: 0
Giant foxtail; [9]
  Plant response rating, Foxtail, Giant: 0
Giant foxtail; [10]
  Plant response rating, Foxtail, Giant: 50
Giant foxtail; [11]
  Plant response rating, Foxtail, Giant: 50
Giant foxtail; [6]
  Plant response rating, Foxtail, Giant: 80
wheat; [7]
  Plant response rating, Wheat: 0
wheat; [8]
  Plant response rating, Wheat: 0
